Experimental data from PubChem BioAssay AID1963955 (Xavier Lab, Infectious Disease and Microbiome Program, …, 2024).
pEC50: −log10 of the molar value. Activity calls are given as the source filed them.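 How the source made its calls: active means statistically significant rise in LC3 puncta area per cell versus the same autophagy inducer given alone; inactive means the rest.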

How the values were obtained:
[1] = autophagy inducers by MAP1LC3 foci formation, imaging, murine bone marrow-derived macrophages, green fluorescent protein-tagged MAP1LC3 (AID 1963955); conditions: mouse BMDM GFP-LC3 puncta imaging, 4 h, active compounds read high
[2] = tested on: mouse BMDM GFP-LC3 puncta imaging, 4 h; assay: as above

CCC(C)(C)C(=O)C(=O)N1CCCC[C@H]1C(=O)N[C@H](CCc1ccc(OC)cc1)C(=O)N1[C@@H]2CC[C@H]1CC(Nc1nc(NCCc3ccccc3)nc(N3CCn4ncnc4C3)n1)C2 (stereo not given in full)
LC3 puncta area per cell ([1]; at 20 µM, no co-treatment): 5.15 um2/cell (inactive) | LC3 puncta area per cell ([1]; at 20 µM, with HBSS): 10.8 um2/cell (inactive) | LC3 puncta area per cell ([1]; at 40 µM, no co-treatment): 5.34 um2/cell (inactive) | LC3 puncta area per cell ([1]; at 40 µM, with HBSS): 11.1 um2/cell

CCC(C)(C)C(=O)C(=O)N1CCCC[C@H]1C(=O)N[C@H](CCc1ccc(OC)cc1)C(=O)N1[C@@H]2CC[C@H]1CC(Nc1nc(NCCc3sc(N)nc3C)nc(N3CCn4ncnc4C3)n1)C2 (stereo not given in full)
pEC50 ([2]; no co-treatment, at 20 µM): 4.35 | pEC50 ([2]; no co-treatment, at 40 µM): 4.35 | pEC50 ([2]; with HBSS, at 20 µM): 4.64 | pEC50 ([2]; with HBSS, at 40 µM): 4.64

CS(C)=O
LC3 puncta area per cell ([1]; no co-treatment): 7.38 um2/cell (inactive) | LC3 puncta area per cell ([1]; with HBSS): 9.2 um2/cell
